Blank lines part the entries; values can stand above or below the compound they belong to. Square brackets hold non-standard residues; d marks the D form. Ends that are not written are not given here. Peptide text beside a SMILES is read from it. * marks the point of attachment. Propanoyl(3,3-Ph2) = O=C(CC(c1ccccc1)c1ccccc1)*; 2Nal = N[C@@H](Cc1ccc2ccccc2c1)C(=O)O; Chg = N[C@H](C(=O)O)C1CCCCC1; R111 = not defined here
Legend:
myostatin = molecular target: T1, myostatin (Homo sapiens, UniProt O14793); test: cell-based; details: for remaining activity at 0.3 µM: HEK293, read-out: luciferase activity (relative; myostatin without test sample = 100%)
T1 sequence (O14793 267-375): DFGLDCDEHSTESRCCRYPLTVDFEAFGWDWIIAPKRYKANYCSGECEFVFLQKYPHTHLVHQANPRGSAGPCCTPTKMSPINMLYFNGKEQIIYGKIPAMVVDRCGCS
Description: Human embryo kidney cell HEK293 cells were cultured in a 5% (v/v) CO2 incubator set to 37° C. using DMEM (NACALAI TESQUE, INC.) including a 10% (v/v) fetal bovine serum (FBS) added with a 1% (v/v) non-essential amino acid (Wako Pure Chemical Corporation).
(2) In Vitro Reporter Assay
HEK293 cells were seeded on a D-Lys-corted 96-well transparent plate (Thermo Fisher Scientific Inc.) in an amount of 2.0×10^4 cells (100 μL DMEM+10% (v/v) FBS) per well and were cultured for 24 hours.
The cells were cultured at 37° C. for 24 hours, and after the cell culture solution was replaced with serum-free DMEM, the cells were cultured for 8 hours. Incidentally, pGL4.48 [luc2P/SBE/Hygro] includes firefly luciferase reporter gene luc2P under Smad binding region (SBE) control, and when a signaling pathway by the myostatin is activated, intracellular Smad forms a complex, and the complex is bonded to SBE to promote transcription of luc2P.
The peptide as a test sample was suspended as a stock solution using DMSO to become 10 mM and stored at −30° C. Before 1 hour from addition to the culture medium, the peptide and a myostatin (Merck Millipore Corp.) were suspended with serum-free DMEM and left to stand still at room temperature (25° C.) for 20 minutes. Subsequently, a peptide with an arbitrary final concentration (0.3 to […]) and 8 ng/mL of myostatin were added to the culture medium, and then culturing was performed for 4 hours. After culturing for 4 hours, the culture solution was removed by an aspirator and the cells were washed with 1×PBS. Thereafter, Passive Lysis buffer (Promega Corporation) was added in an amount of 50 μL per well to dissolve the cells. The dissolving solution was subjected to centrifugal separation at 4500 rpm for 6 minutes under the condition of 4° C. After 20 μL of supernatant subjected to centrifugal separation was transferred to a white 96-well plate (Costar), 50 μL of Luciferase Assay Reagent (Promega Corporation) was then added, emission was detected by Luminoskan Ascent (Thermo Fisher Scientific Inc.), and a firefly luciferase activity was measured. Further, after 50 μL of Stop & Glo Buffer (Promega Corporation) was added, emission was detected by Luminoskan Ascent, and a Renilla luciferase activity was measured to be regarded as an internal control.

mdx mice = test: Influence on serum creatine kinase level of mdx mice; assay type: in vivo; details: mdx male mice; 40 μL of 0.75 mM intramuscular into calf muscles of both legs on day 0 and day 14
Description: Evaluation was performed by the following method in order to check the effect of nPDM-55/E31R prepared in Synthesis Example 36 to a serum creatine kinase (CK) value in mdx mice. Incidentally, 3d prepared in Synthesis Example 75 was used as Comparative Example.
nPDM-55/E31R and 3d were dissolved in saline to become 0.75 mM. 40 μL of nPDM-55/E31R was intramuscularly administered into the calf muscles of both legs of anesthetized mdx mice aged 5 weeks (all mice were males, purchased from CLEA Japan, Inc.). After 2 weeks, the same amount of nPDM-55/E31R was administered to the same site again. Serum samples were collected immediately before administration of nPDM-55/E31R and 3d (day 0, day 14) and further also collected after 4 weeks (day 42). […] From those results, it was shown that nPDM-55/E31R has an effect of continually maintaining the CK level in blood to be low as compared to 3d.

[1] = system: calf muscles of mdx mice and C57BL/6 mice; test: Influence on calf muscles of mdx mice and C57BL/6 mice (cross-sectional areas of muscle fibers); assay type: in vivo
Description: Evaluation was performed by the following method in order to check the muscle mass increasing effect in vivo of nPDM-55/E31R prepared in Synthesis Example 36.
nPDM-55/E31R was dissolved in saline to become 0.75 mM. 40 μL of nPDM-55/E31R was intramuscularly administered into the calf muscles of both legs of anesthetized mdx mice and C57BL/6 mice aged 5 weeks (all mice were males, purchased from CLEA Japan, Inc.) (40 μL of saline was intramuscularly administered into the calf muscles of both legs of control mice). After 2 weeks, the same amount of nPDM-55/E31R was administered to the same site again. After further 4 weeks, the mice were subjected to necropsy, the calf muscles were excised from the both legs and transverse frozen sections (6 μm) were formed using cryostat. Regarding three sections stained with Hematoxylin-Eosin and randomly selected, cross-sectional areas of muscle fibers (200 fibers) were analyzed by a fluorescence microscope BZX700 (KEYENCE CORPORATION).

Compound: CC[C@H](C)[C@H](NC(=O)[C@H](CCC(N)=O)NC(=O)[C@@H](NC(=O)[C@H](CCCCN)NC(=O)[C@@H](NC(=O)[C@H](Cc1ccc2ccccc2c1)NC(=O)[C@H](CCCNC(=N)N)NC(=O)[C@@H](NC(=O)[C@H](Cc1ccc(O)cc1)NC(=O)[C@@H](N)Cc1ccc(O)cc1)[C@@H](C)CC)[C@@H](C)CC)[C@@H](C)CC)C(=O)N[C@@H](Cc1c[nH]c2ccccc12)C(=O)N[C@@H](CO)C(=O)N[C@@H](CCCCN)C(=O)N[C@@H](CC(C)C)C(=O)N[C@@H](CCCNC(=N)N)C(=O)N[C@@H](CC(C)C)C(N)=O [nPDM-69, YYIR-Naa-IKIQIWSKLRL-NH2] (H-YYIR[2Nal]IKIQIWSKLRL-NH2)
remaining activity at 0.3 µM (myostatin): ≤ 60%

Compound: CC[C@H](C)[C@H](NC(=O)[C@H](CCC(N)=O)NC(=O)[C@@H](NC(=O)[C@H](CCCNC(=N)N)NC(=O)[C@@H](NC(=O)[C@@H](Cc1c[nH]c2ccccc12)NC(=O)[C@H](CCCNC(=N)N)NC(=O)[C@@H](NC(=O)[C@H](Cc1ccc(O)cc1)NC(=O)[C@@H](N)Cc1c[nH]c2ccccc12)[C@@H](C)CC)[C@@H](C)CC)C1CCCCC1)C(=O)N[C@@H](Cc1c[nH]c2ccccc12)C(=O)N[C@@H](CO)C(=O)N[C@@H](CCCNC(=N)N)C(=O)N[C@H](C(=O)N1CCC[C@H]1C(=O)N[C@@H](CC(C)C)C(N)=O)C1CCCCC1 [nPDM-80, WYIRwIR-Chg-QIWSR-Chg-PL-NH2] (H-WYIR[dW]IR[Chg]QIWSR[Chg]PL-NH2)
remaining activity at 0.3 µM (myostatin): ≤ 60%

Compound: CC[C@H](C)[C@H](NC(=O)[C@H](Cc1ccc(O)cc1)NC(=O)CC(c1ccccc1)c1ccccc1)C(=O)N[C@@H](CCCNC(=N)N)C(=O)N[C@@H](Cc1c[nH]c2ccccc12)C(=O)N[C@H](C(=O)N[C@@H](CCCNC(=N)N)C(=O)N[C@H](C(=O)N[C@@H](CCC(N)=O)C(=O)N[C@H](C(=O)N[C@@H](Cc1c[nH]c2ccccc12)C(=O)N[C@@H](CO)C(=O)N[C@@H](CCCNC(=N)N)C(=O)N[C@H](C(=O)N1CCC[C@H]1C(=O)N[C@@H](CC(C)C)C(N)=O)C1CCCCC1)[C@@H](C)CC)C1CCCCC1)[C@@H](C)CC [nPDM-85, R^114-YIRWIR-Chg-QIWSR-Chg-PL-NH2] ({Propanoyl(3,3-Ph2)}-YIRWIR[Chg]QIWSR[Chg]PL-NH2)
remaining activity at 0.3 µM (myostatin): ≤ 60%

Compound: R^111-WYIEWIKIQIISKLRL-NH2 (R111-WYIEWIKIQIISKLRL-NH2; reading uncertain; also: printed as R^111-WYIEWIKIQIISKLRL-NH2) [PDM-27]
myostatin inhibitory activity (concentration-dependent evaluation) (myostatin; at a concentration of 1 μM or more, 8 ng/mL myostatin, HEK293): significant myostatin inhibitory activity

Compound: SRIEAIKIQILSKLRL-NH2 (listed as Mus musculus) [mMPS(28-43), reference compound]
myostatin inhibitory activity (myostatin; final concentration of 1 μM): a high myostatin inhibitory activity was not recognized
myostatin inhibitory activity (myostatin; final concentration of 10 μM): the myostatin inhibitory activity was not recognized

Compound: WYIEAIKIQILSKLRL-NH2 [d-14, reference compound]
myostatin inhibitory activity (myostatin; final concentration of 1 μM): a high myostatin inhibitory activity was not recognized

More lines, main results first:

remaining activity at 0.3 µM (myostatin): ≤ 60%
Compound: CC[C@H](C)[C@H](NC(=O)[C@H](CCC(N)=O)NC(=O)[C@@H](NC(=O)[C@H](CCCCN)NC(=O)[C@@H](NC(=O)[C@H](Cc1c[nH]c2ccccc12)NC(=O)[C@H](CCCNC(=N)N)NC(=O)[C@@H](NC(=O)[C@H](Cc1ccc(O)cc1)NC(=O)[C@@H](N)Cc1c[nH]c2ccccc12)[C@@H](C)CC)[C@@H](C)CC)[C@@H](C)CC)C(=O)N[C@@H](Cc1c[nH]c2ccccc12)C(=O)N[C@@H](CO)C(=O)N[C@@H](CCCCN)C(=O)N[C@@H](CC(C)C)C(=O)N[C@@H](CCCNC(=N)N)C(=O)N[C@@H](CC(C)C)C(N)=O [nPDM-55/E31R, WYIRWIKIQIWSKLRL-NH2] (H-WYIRWIKIQIWSKLRL-NH2)
serum creatine kinase (CK) level on day 14 versus day 0 (mdx mice): clearly lower value
serum creatine kinase (CK) level on day 42 (mdx mice): clearly lower value
cross-sectional areas of muscle fibers of calf muscles ([1]; mdx and C57BL/6 male mice, 40 μL of 0.75 mM intramuscular into both legs, again after 2 weeks, after further 4 weeks, vs saline mice): increased
nature of the obtained muscular hypertrophy (analysis images) ([1]; mdx and C57BL/6 mice, Hematoxylin-Eosin stained sections): not inflammatory

remaining activity at 0.3 µM (myostatin): ≤ 60%
Compound: CC[C@H](C)[C@H](NC(=O)[C@H](CCC(N)=O)NC(=O)[C@@H](NC(=O)[C@H](CCCCN)NC(=O)[C@@H](NC(=O)[C@H](Cc1c[nH]c2ccccc12)NC(=O)[C@H](CCCNC(=N)N)NC(=O)[C@@H](NC(=O)[C@H](Cc1ccc(O)cc1)NC(=O)[C@@H](N)Cc1c[nH]c2ccccc12)[C@@H](C)CC)[C@@H](C)CC)[C@@H](C)CC)C(=O)N[C@@H](Cc1c[nH]c2ccccc12)C(=O)N[C@@H](CO)C(=O)N[C@@H](CCCCN)C(=O)N[C@H](C(=O)N[C@@H](CCCNC(=N)N)C(=O)N[C@@H](CC(C)C)C(N)=O)C1CCCCC1 [nPDM-65, WYIRWIKIQIWSK-Chg-RL-NH2] (H-WYIRWIKIQIWSK[Chg]RL-NH2)

remaining activity at 0.3 µM (myostatin): ≤ 60%
Compound: CC[C@H](C)[C@H](NC(=O)[C@H](CCC(N)=O)NC(=O)[C@@H](NC(=O)[C@H](CCCCN)NC(=O)[C@@H](NC(=O)[C@H](Cc1c[nH]c2ccccc12)NC(=O)[C@H](CCCNC(=N)N)NC(=O)[C@@H](NC(=O)[C@H](Cc1ccc(O)cc1)NC(=O)[C@@H](N)Cc1c[nH]c2ccccc12)[C@@H](C)CC)[C@@H](C)CC)C1CCCCC1)C(=O)N[C@@H](Cc1c[nH]c2ccccc12)C(=O)N[C@@H](CO)C(=O)N[C@@H](CCCCN)C(=O)N[C@H](C(=O)N[C@@H](CCCNC(=N)N)C(=O)N[C@@H](CC(C)C)C(N)=O)C1CCCCC1 [nPDM-66, WYIRWIK-Chg-QIWSK-Chg-RL-NH2] (H-WYIRWIK[Chg]QIWSK[Chg]RL-NH2)

remaining activity at 0.3 µM (myostatin): ≤ 60%
Compound: CC[C@H](C)[C@H](NC(=O)[C@H](CCC(N)=O)NC(=O)[C@@H](NC(=O)[C@H](CCCNC(=N)N)NC(=O)[C@@H](NC(=O)[C@@H](Cc1c[nH]c2ccccc12)NC(=O)[C@H](CCCNC(=N)N)NC(=O)[C@@H](NC(=O)[C@H](Cc1ccc(O)cc1)NC(=O)[C@@H](N)Cc1c[nH]c2ccccc12)[C@@H](C)CC)[C@@H](C)CC)C1CCCCC1)C(=O)N[C@@H](Cc1c[nH]c2ccccc12)C(=O)N[C@H](CO)C(=O)N[C@@H](CCCNC(=N)N)C(=O)N[C@H](C(=O)N1CCC[C@H]1C(=O)N[C@@H](CC(C)C)C(N)=O)C1CCCCC1 [nPDM-82, WYIRwIR-Chg-QIWsR-Chg-PL-NH2] (H-WYIR[dW]IR[Chg]QIW[dS]R[Chg]PL-NH2)

remaining activity at 0.3 µM (myostatin): ≤ 60%
IC50 (myostatin; read-out: IC50 value, myostatin inhibitory activity, concentration range of 0.016 to 2 μM): 131 nM
Compound: CC[C@H](C)[C@H](NC(=O)[C@H](CCC(N)=O)NC(=O)[C@@H](NC(=O)[C@H](CCCCN)NC(=O)[C@@H](NC(=O)[C@@H](Cc1c[nH]c2ccccc12)NC(=O)[C@H](CCCNC(=N)N)NC(=O)[C@@H](NC(=O)[C@H](Cc1ccc(O)cc1)NC(=O)[C@@H](N)Cc1c[nH]c2ccccc12)[C@@H](C)CC)[C@@H](C)CC)C1CCCCC1)C(=O)N[C@@H](Cc1c[nH]c2ccccc12)C(=O)N[C@@H](CO)C(=O)N[C@@H](CCCCN)C(=O)N[C@H](C(=O)N[C@@H](CCCNC(=N)N)C(=O)N[C@@H](CC(C)C)C(N)=O)C1CCCCC1 [nPDM-86, WYIRwIK-Chg-QIWSK-Chg-RL-NH2] (H-WYIR[dW]IK[Chg]QIWSK[Chg]RL-NH2)
inhibitory activity relative to 3d (myostatin; comparison of IC50 values): approximately two times higher inhibitory activity

— patent publication US11566047B2, “Peptide or pharmaceutically acceptable salt thereof, or prodrug thereof” (TOKYO UNIVERSITY OF PHARMACY & LIFE SCIENCES, priority 2016, dated 2023)
